In patent US20110224226A1, “COMPOSITIONS AND METHODS FOR INCREASING BLOOD PLATELET LEVELS IN HUMANS” (AKARX, Inc., priority 2006, published 2011):

Columns and labels:
[1] = 4-week repeat dose toxicity in the dog; assay type: in vivo
[2] = species specificity of activity; set-up: species or system chimpanzee and man
[3] = Example 2 multi-dose study: safety; assay type: in vivo, human; conditions: up to 20 mg daily for ten (10) to fourteen (14) days, healthy volunteers
Protocol: A double-blind, placebo-controlled, dose rising study was performed in healthy male and female volunteers. Each dose cohort received either placebo or active treatment as an oral suspension once daily for fourteen (14) consecutive days. The dose of study drug was prepared and administered as described in Example 1 above. The doses administered in this multiple dose study were based on the safety and tolerability assessment of the doses administered in Example 1.
Based on the results of Example 1, the starting dose was 3 mg. Based on the safety and tolerability results from Example 1, the dose was scheduled to be escalated to 10, 20, 50 and 100 mg per day for 14 consecutive days. Successive dose cohorts were not treated until the previous cohort completed 14 days of treatment and the safety follow-up visit on Day 21.

[4] = in-vitro plasma protein binding, monkeys; assay type: in vitro ADME; conditions: monkey, 0.05 to 50 μg/mL
Protocol: (§1) The in-vitro plasma protein binding of the drug of Formula I was independent of concentration over the concentration range of 0.05 to 50 μg/mL and was 87.2-89.1% in mice; 87.6-89.2% in rats; 88.3-92.0% in rabbits; […] in dogs; 97.0-97.6% in monkeys; and 96.3-96.6% in humans.

[5] = 4-week repeat dose toxicity in rats; assay type: in vivo, rat
[6] = Example 1 single dose study: safety; assay type: in vivo, human; conditions: single dose up to 100 mg, healthy volunteers
Protocol: A single-center, randomized, double-blind, dose-rising study to determine the safety, pharmacokinetics, and pharmacodynamics of single doses of 1-(3-chloro-5-{[4-(4-chlorothiophen-2-yl)-5-(4-cyclohexylpiperazin-1-yl)thiazol-2-yl]carbamoyl} pyridin-2-yl)piperadine-4-carboxylic acid (Formula I) in normal healthy volunteers was performed. The starting dose of the drug of Formula I was 1 mg (expressed as free base). Successive dose cohorts received 3, 10, 20, 50, 75 and 100 mg. The drug substance in the form of the monomaleate salt was suspended in Ora-Plus® (purified water, microcrystalline cellulose, sodium carboxymethylcellulose, xanthan gum, citric acid, sodium phosphate, simethicone, potassium sorbate and methylparaben), a commercially available oral suspending vehicle manufactured by Paddock Laboratories, Inc. Minneapolis, Minn. The Ora-Plus® was diluted with purified water, USP in a 1:1 suspension before being used to suspend the drug substance powder in preparation for oral administration. Prior to administration, 30 mL of the Ora-Plus®/water vehicle was added to each bottle, shaken and then consumed by the subject for each of the 3, 10, 50 and 75 mg dose cohorts. This was followed by an additional 30 mL of vehicle that was added to the bottle as a wash solution, shaken and then consumed by the subject. […]

[7] = test system: human hematopoietic progenitor cells; test: differentiation of hematopoietic progenitor cells other than megakaryocytic lineage; assay type: cell-based
[8] = in-vitro plasma protein binding, humans; assay type: in vitro ADME; conditions: human, 0.05 to 50 μg/mL
Protocol: as §1

SMILES: O=C(Nc1nc(-c2cc(Cl)cs2)c(N2CCN(C3CCCCC3)CC2)s1)c1cnc(N2CCC(C(=O)O)CC2)c(Cl)c1 [Formula I, 1-(3-chloro-5-{[4-(4-chlorothiophen-2-yl)-5-(4-cyclohexylpiperazin-1-yl)thiazol-2-yl]carbamoyl}pyridin-2-yl)piperadine-4-carboxylic acid]
- muscle lesions ([1]; any dose): No muscle lesions were observed
- renal findings at the end of the recovery period ([1]; high dose animals (100, 300 mg/kg/day), all other renal lesions resolved): regeneration of renal tubular epithelial persisted in the majority of the high dose animals
- microscopic changes in the cortex of the kidney ([1]; monomaleate salt, 10, 30, 100, 300 mg/kg/day for 4 weeks): epithelial cell regeneration of proximal tubules and interstitial subacute inflammation
- species specificity [2]: activity only in the chimpanzee and man
- tolerability (drug-related clinical or laboratory adverse experiences) [3]: well tolerated
- fraction unbound [4]: 0.024 to 0.03
- reversibility of gastric mucosa changes ([5]; rat, on drug withdrawal): resolved on drug withdrawal
- CK and aldolase levels ([5]; rat, repeat dosing 4 weeks): Elevated levels of CK and aldolase
- muscle degeneration/necrosis in femoral, lower thigh or multifides muscles ([5]; rat, repeat dosing 4 weeks): 1 or 2 rats per dose group
- changes in the gastric mucosa ([5]; rats, repeat dosing 4 weeks, 3, 10, 30, 100 mg/kg/day): degeneration of chief cells and parietal cells
- tolerability (drug-related clinical or laboratory adverse experiences) [6]: well tolerated
- differentiation of human hematopoietic progenitor cells other than those of megakaryocytic lineage [7]: did not promote the differentiation
- fraction unbound [8]: 0.034 to 0.037
